Results on one compound are retold here after patent EP0162545A2, “Enhanced bioconversion processes” (BETZ EUROPE, INC., priority 1984, dated 1985).

One data set deals with Klebsiella pneumoniae. The data set can be described thus: microbe, parasite or virus in culture. The format is cell-based. Here is the method:
The first series of experiments involved the measurement of the amount of C02 evolved from aerobically growing cultures of the representative organism Klebsiella in the presence and absence of uncoupling agents. The known uncouplers 2, 4 dinitrophenol (DNP) and carbonyl cyanide m-chlorophenyl hydrazone (CCCP) were tested along with bis (tricholoromethyl) sulfone (TCMS) and beta-bromo-beta-nitrostyrene (BNS). It can be seen from the data that CCCP caused large increases in C02 evolution over the untreated controls at all concentrations used, with the largest increase (29%) at 5 µg/mL (24.4 uM). […] Bacterial counts also reflected the lack of uncoupling activity. […] Largest increase in C02 blowoff came at 50 ppm (32%). BNS gave a mixed pattern as opposed to those of DNP and CCCP. […] Even at 10 µg/mL, the bacterial count was reduced ~ 50% while still giving greater C02 blowoff than control cultures.
The procedure utilized to perform the first series of experiments was as follows: • Sealed vials containing 8 mL of minimal salts medium (Composition: K2HPO4-39, KH2PO4-lg, MgSO4-0.2g, (NN4)2SO4^-1g, D-glucose-5g (optional) in 1 liter. Autoclave and adjust pH to 6.8) lacking any carbon source were each injected with 1 mL of a suspension of Klebsiella pneumoniae. (Klebsiella was grown overnight, shaken at 37°C, in minimal salts medium containing glucose to a heavy cell suspension. The cells were centrifuged at 10,000 g and resuspended to a turbidity of 150 Klett units [Klett-Summerson photometer, #42 blue filter) in minimal salts medium [MSM], no glucose. These cells were again centrifuged, and resuspended in MSM at 1/10 the volume used previously. This 10X cell suspension was used as the standard inoculum for the vials.) The vials were- simultaneously injected with 1 mL of a 1 µ Ci/mL solution of ^14C-U-D glucose and the appropriate concentration of material to be tested. The compounds tested were fed at concentrations of […]. Controls received no test material and all vials were shaken during the course of the experiments at 37°C. Vials were read for C02 blowoff at the times indicated on the appropriate Tables. Standard bacterial counts were done on each vial after the end of each experimental series. [formula] [formula] [formula] [formula]

For another data set, the system named is Klebsiella. The format is cell-based. Here is the method: At 0.05 µg/mL level, TOC removal was equivalent to the untreated control. When BNS concentrations of 0.5 µg/mL were used, TOC removal ceased and in the second series of experiments, TOC levels increased sharply at 0.5 - 2 µg/mL concentrations of BNS. Similar results were obtained when BNS was used to treat bacteria growing in the glucose salts medium. No increases in TOC removal were seen. The TOC concentration increased rapidly at BNS concentration of 0.5 - 2 ppm only to fall back to control levels at 5 ppm. The cells then added TOC to the medium again from […] concentrations of BNS. This middle range spike in TOC (0.5-2 µg/mL BNS) was thought to be caused by excessive extra cellular polymer sloughing and limited cellular death as evidenced by the viability counts in the. 0.5 - 2 µg/mL BNS range. […] The dissolved oxygen concentration was decreased in the presence of BNS at concentrations of 0.05 - 1 µg/mL but at no concentration of BNS was the removal greater than the control level.
This set of experiments tends to make the BNS range of useful concentrations even lower than noted before. […] DO removal was seriously affected by concentrations of BNS that were ≥ 0.5 µg/mL. In short, it would appear that BNS would have to be used at concentrations ≤ 0.5 µg/mL in order to prevent the upset of a waste treatment facility by killing off the microbial populations. […]

The nature of data set [1]: BNS breakdown kinetics in deionized water, spectrophotometric at 320 nm. The format is physicochemical. The protocol:
BNS stock was composed of 10% BNS, 5% Triton X-114 and 85% carbitol acetate. BNS was diluted in deionized water to the appropriate 10X concentration desired. Breakdown kinetics were measured in a deionized H20/BNS system by spectrophotometric measurement at 320 nm and a BNS half life was determined to be 7 hours. Continuous and separate pumping of uncoupler was by a Masterflex 7552-10 peristalic pump (Cole Parmer, Chicago, IL) through silicon tubing lines into the bioreactor. Feed flow was split 90% organic feed, 10% BNS feed for total flow. New uncoupler feed was made up daily from the previously mentioned stock, since there was only 10% of the original BNS concentration left before the new daily solution of BNS feed was begun. BNS dose of 1, 2 and 5 ppm was based on the total bulk feed. Reservoir solutions were mixed constantly on a Fisher versamix magnetic stir plate at a speed of 0.4/1.0 to prevent settling out of chemical.

Molecules are shown by their SMILES. Some results are limits rather than exact numbers.

Usually half-life stands for the time in which the quantity being followed falls by half. Low values mean rapid decline, high ones slow decline. Take `O=[N+]([O-])C(Br)=Cc1ccccc1` [BNS, beta-bromo-beta-nitrostyrene]: the “concentrations at which toxic properties become evident” value in the data set with Klebsiella pneumoniae is given as greater than 5.0 µg/mL. Besides, the activation at 1 µg/mL in the data set with Klebsiella pneumoniae (Klebsiella pneumoniae, 1.0 µ/mL, 14C-glucose, read-out: largest increase in C02 blowoff) came to 13%. Besides, in the data set with Klebsiella, the “concentrations seriously affecting DO removal” value is no less than 0.5 µg/mL and the toxic concentration is 0.5 to 1 µg/mL. In addition, the half-life in data set [1] (deionized water, deionized H20/BNS system, 320 nm) is 7 h. In addition, the “original BNS concentration left” value in data set [1] (diluted feed in deionized water, before the new daily solution) is 10%.
